Experimental data taken from EP0204284A2, “A novel lipase” (SAPPORO BREWERIES LIMITED, priority 1985, dated 1986).
Entries after “also recorded” stand apart in the source; their conditions may differ.

Tested on: lipase
Experiment: not given
Settings: Biochim. Biophys. Acta 488, 353-358 (1977); cited from earlier work

Row | Compound | Activation and deactivation (in words)
1 | [Cl][Hg][Cl] [HgCl2, mercury (II) chloride] | Almost no deactivation
2 | [Cl][Fe]([Cl])[Cl] [FeCl3, iron (III) chloride] | Almost no deactivation

Tested on: lipase
Experiment: Influence of surface active agents on the enzymatic activity (residual activity)
Format: biochemical, Pseudomonas fragi 22.39B
Settings: 9:1 by volume mixture of 10 U/ml enzyme solution and 4% aqueous solution of surface active agent, 25°C, 30 minutes
Method: Thus, the chemical and physical properties, by which the inventive novel lipase is characterized, are as described below.
Similarly, the influence of surface active agents on the enzymatic activity was examined by keeping a 9:1 by volume mixture of a 10 U/ml solution of the enzyme and a 4% aqueous solution of the surface active agent at 25°C for 30 minutes followed by the determination of the residual activity of the enzyme in the solution.

Row | Compound | Residual activity, %
3 | Sorbitan monooleate [Sorbitan monooleate (Span 80)] | 56%
4 | CCCCCCCCCCCC[N+](C)(C)C.[Cl-] [Dodecyl trimethyl ammonium chloride] | 35%
5 | CCCCCCCCCCCCCCCC[N+](C)(C)C.[Br-] [Cetyl trimethyl ammonium bromide] | 12%
6 | CCCCCCCC/C=C\CCCCCCCC(=O)OCCOCC(OCCO)C1OCC(OCCO)C1OCCO (stereo not drawn) [Polyoxyethylene sorbitan monooleate] | 115%
7 | Polyoxyethylene (10) oleyl ether | 55%
8 | CCCCCCCCCCCC[N+](C)(C)C.[Br-] [n-Dodecyl trimethyl ammonium bromide] | 46%
9 | Polyoxyethylene (10) octyl phenyl ether | 105%

Same assay, conditions: summary statement

Row | Compound | Effect of surface active agents on the enzyme (in words)
10 | CCCCCCCCCCCCCCCC[N+](C)(C)C.[Br-] [Cetyl trimethyl ammonium bromide] | deactivated
11 | Polyoxyethylene (10) octyl phenyl ether | somewhat increased

Target: lipase (Pseudomonas aeruginosa, UniProt P26876)
Sequence (P26876 27-311): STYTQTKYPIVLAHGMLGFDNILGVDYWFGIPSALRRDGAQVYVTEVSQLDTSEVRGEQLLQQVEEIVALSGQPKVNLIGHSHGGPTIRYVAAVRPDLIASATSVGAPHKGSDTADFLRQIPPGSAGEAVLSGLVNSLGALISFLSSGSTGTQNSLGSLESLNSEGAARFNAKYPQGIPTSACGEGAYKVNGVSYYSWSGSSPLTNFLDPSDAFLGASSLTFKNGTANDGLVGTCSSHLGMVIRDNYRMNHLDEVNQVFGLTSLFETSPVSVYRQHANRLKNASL
Experiment: not given
Settings: Biochim. Biophys. Acta 206, 380-391 (1970); cited from earlier work

Row | Compound | Substrate specificity (in words)
12 | CCCC(=O)OCC(COC(=O)CCC)OC(=O)CCC [Tributyrin] | Active

Tested on: lipase
Experiment: not given
Settings: J. Ferment. Technol. 49, 128 (1971); Japanese Patent Publication 50-25553; cited from earlier work

Row | Compound | Activation and deactivation (in words)
13 | copper sulfate | Inhibited
14 | [Cl][Hg][Cl] [HgCl2, mercury (II) chloride] | Inhibited
15 | [Cl][Fe]([Cl])[Cl] [FeCl3, iron (III) chloride] | Inhibited

Target: T1, lipase (Pseudomonas fragi, UniProt P08658)
T1 sequence (P08658 1-293): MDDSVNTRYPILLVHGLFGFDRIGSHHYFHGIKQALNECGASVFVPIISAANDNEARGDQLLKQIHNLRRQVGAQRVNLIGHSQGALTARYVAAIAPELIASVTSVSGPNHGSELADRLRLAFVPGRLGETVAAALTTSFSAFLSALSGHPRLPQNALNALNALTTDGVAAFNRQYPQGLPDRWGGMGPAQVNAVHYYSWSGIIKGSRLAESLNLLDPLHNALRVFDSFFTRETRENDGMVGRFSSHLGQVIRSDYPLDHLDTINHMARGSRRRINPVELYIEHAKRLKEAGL
Experiment: not given
Settings: J. Gen. Microbiol. 48, 317-328 (1967); cited from earlier work

Row | Compound | Substrate specificity (in words)
16 | CCCC(=O)OC [Methyl butyrate] | inactive
17 | CCCCCCCC/C=C\CCCCCCCC(=O)OC [Methyl oleate] | inactive
18 | CCCC(=O)OCC(COC(=O)CCC)OC(=O)CCC [Tributyrin] | Active

Tested on: lipase
Experiment: not given
Settings: Biochim. Biophys. Acta 488, 353-358 (1977); cited from earlier work
Remark: another data set of the same source

Row | Compound | Substrate specificity (in words)
19 | CCCCCCCCCCCCCCCC(=O)OCC(COC(=O)CCCCCCCCCCCCCCC)OC(=O)CCCCCCCCCCCCCCC [tri- palmitin] | Active
20 | CCCCCC(=O)OCC(COC(=O)CCCCC)OC(=O)CCCCC [tricaproin] | Active

Tested on: lipase
Experiment: not given
Format: biochemical, Pseudomonas fragi 22.39B
Settings: 1000 µM
Method: Thus, the chemical and physical properties, by which the inventive novel lipase is characterized, are as described below. The activity of the enzyme has been determined by the PVA emulsion method proposed by Yamada, et al. and described in Journal of the Agricultural Chemical Society of Japan, volume 36, page 860 (1962) with some modifications if not mentioned otherwise, taking an amount of the enzyme liberating a micro- equivalent of a fatty acid for 1 minute as one unit (U) (see Japanese Patent Publication 56-28517).
The influence of metal ions on the enzymatic actvity was examined by keeping a 9:1 by volume mixture of a 5U/ml solution of the enzyme and a 10 mM solution of the metal ions at 25°C for 30 minutes followed by the determination of the residual activity of the enzyme in the solution. No calcium chloride was contained in the reaction mixture.

Row | Compound | Residual activity, %
21 | NaCl | 98.0%

Same assay, conditions: 9:1 by volume mixture of 5U/ml enzyme solution and 10 mM metal ion solution, 25°C, 30 minutes; no calcium chloride

Row | Compound | Residual activity, %
22 | [Cl-].[Cl-].[Zn+2] [ZnCl2, zinc chloride] | 34.9%
23 | [Ca+2].[Cl-].[Cl-] [CaCl2] | 105.5%
24 | [Cl][Ag] [AgCl] | 93.6%
25 | [Cl][Pb][Cl] [PbCl2] | 78.0%
26 | KCl | 98.0%
27 | LiCl | 97.5%
28 | [Cl][Mn][Cl] [MnCl2] | 81.7%
29 | [Cl][Sn][Cl] [SnCl2] | 79.8%
30 | [Cl-].[Cl-].[Sr+2] [SrCl2] | 92.7%
31 | [Cl-].[Cl-].[Mg+2] [MgCl2] | 97.2%
32 | [Cl][Ni][Cl] [NiCl2] | 98.9%
33 | [Ba+2].[Cl-].[Cl-] [BaCl2] | 92.7%
34 | [Cl][Cu][Cl] [CuCl2] | 90.8%
35 | [Cl][Al]([Cl])[Cl] [AlCl3] | 93.6%
36 | [Cl][Hg][Cl] [HgCl2, mercury (II) chloride] | 83.5%
37 | [Cl-].[Cl-].[Co+2] [CoCl2] | 86.6%
38 | [Cl][Fe]([Cl])[Cl] [FeCl3, iron (III) chloride] | 33.0%
39 | [Cl][Fe][Cl] [FeCl2, iron (II) chloride] | 36.7%

Same assay, conditions: summary statement

Row | Compound | Effect of metal ions on the enzyme (in words)
40 | [Cl-].[Cl-].[Zn+2] [ZnCl2, zinc chloride] | Deactivated
41 | [Cl][Fe]([Cl])[Cl] [FeCl3, iron (III) chloride] | Deactivated
42 | [Cl][Fe][Cl] [FeCl2, iron (II) chloride] | Deactivated

Same assay, conditions: summary statement; listed as Zn^2+

Row | Compound | Effect of metal ions on the enzyme (in words)
43 | [Cl-].[Cl-].[Zn+2] [ZnCl2, zinc chloride] | deactivated; also recorded: deactivating effect

Tested on: lipase
Experiment: Substrate specificity: relative rate of decomposition of esters, oils and fats (shaking method)
Format: biochemical, Pseudomonas fragi 22.39B
Settings: ester as the substrate; triolein as the reference (100); shaking method, pH 9.0, 37°C, 30 minutes
Source text: The enzyme is active for the decomposition of the substrate, such as various kinds of esters and naturally occurring oils and fats. Tables 1-1 and 1-2 given below give the relative rate of decomposition of esters (Table 1-1) and naturally occurring oils and fats (Table 1-2) in % taking triolein and olive oil, respectively, as the reference.
Different from the above mentioned standard procedure of the PVA emulsion method, the results tabulated in Tables 1-1 and 1-2 were obtained by the shaking method according to the conditions and procedures described below.
The solution described above was taken in an Erlenmeyer flask of 100 ml capacity and shaken for 30 minutes in a thermostat at 37°C at a rate of 90 rpm along an 8-shaped line. After completion of the above mentioned reaction time, 20 ml of a 1:1 mixture of acetone and ethyl alcohol were added to the flask and the resultant solution was titrated within a length of time with a 0.05N aqueous solution of sodium hydroxide using phenol phthalein as the indicator.

Row | Compound | Relative rate of decomposition, %
44 | CCCCCCCC/C=C\CCCCCCCC(=O)OCC [Ethyl oleate] | 59%
45 | CC(=O)OCC(COC(C)=O)OC(C)=O [Triacetin] | 108%
46 | Sorbitan monooleate [Sorbitan monooleate (Span 80)] | 36%
47 | CCCC(=O)OC [Methyl butyrate] | 23%
48 | CCCCCCCC/C=C\CCCCCCCC(=O)OC [Methyl oleate] | 87%
49 | CCCCCCCC/C=C\CCCCCCCC(=O)OCCCC [Butyl oleate] | 95%
50 | CCCCCCCC/C=C\CCCCCCCC(=O)OCCOCC(OCCO)C1OCC(OCCO)C1OCCO (stereo not drawn) [Polyoxyethylene sorbitan monooleate] | 50%
51 | Sorbitan monolaurate [Sorbitan monolaurate (Span 20)] | 66%
52 | CCCC(=O)OCC(COC(=O)CCC)OC(=O)CCC [Tributyrin] | 243%

Same assay, conditions: summary statement

Row | Compound | Activity of the enzyme for the decomposition of the substrate (in words)
53 | CC(=O)OCC(COC(C)=O)OC(C)=O [Triacetin] | highly active
54 | CCCCCCCC/C=C\CCCCCCCC(=O)OCCCC [Butyl oleate] | Active; also recorded: good activity
55 | CCCC(=O)OCC(COC(=O)CCC)OC(=O)CCC [Tributyrin] | highly active

Same assay, conditions: summary statement; listed as methyl - oleate

Row | Compound | Activity of the enzyme for the decomposition of the substrate (in words)
56 | CCCCCCCC/C=C\CCCCCCCC(=O)OC [Methyl oleate] | good activity

Same assay, conditions: summary statement; listed as methyl oleate

Row | Compound | Activity of the enzyme for the decomposition of the substrate (in words)
57 | CCCCCCCC/C=C\CCCCCCCC(=O)OC [Methyl oleate] | Active

Tested on: lipase
Experiment: not given
Settings: J. Ferment. Technol. 49, 128 (1971); Japanese Patent Publication 50-25553; cited from earlier work
Remark: another data set of the same source

Row | Compound | Substrate specificity (in words)
58 | CCCC(=O)OC [Methyl butyrate] | little active
59 | CCCCCCCCCCCCCC(=O)OCC(COC(=O)CCCCCCCCCCCCC)OC(=O)CCCCCCCCCCCCC [trimyristin] | Active
60 | CCCC(=O)OCC(COC(=O)CCC)OC(=O)CCC [Tributyrin] | Active
